{"source": "patent US5700906A", "about": "“Immunogenic peptide antigen corresponding to plasmodium vivax circumsporozoite protein” (New York University, priority 1987, dated 1997)", "key": {"[1]": {"test_system": "binding of a monoclonal antibody to extracts of sporozoites from a New Guinea vivax malaria", "assay": "Competition of peptide with monoclonal antibody binding to New Guinea vivax sporozoite extracts", "parameters": "species or system P. vivax", "excerpt": "Thus, although the P. vivax CS gene was isolated from a Brazilian strain of P. vivax, the epitope deduced from the sequence of the cloned gene appears to be present in all P. vivax CS proteins so far studied. The characterization of this gene and its encoded amino acid sequence allows synthesis of large amounts of the repetitive epitope and other antigenically active regions of the P. vivax CS protein and development of a protective vaccine using peptides corresponding to such regions."}, "[2]": {"test_system": "binding of monoclonal antibody 2F2 to immobilized P. vivax sporozoite extract", "assay": "Inhibition of the binding of labelled monoclonal antibody 2F2 to immobilized P. vivax extracts", "conditions": "at 0: 16,387 ± 1,085 cpm", "protocol": "100,000 cpm of 2F2 antibody labelled by ^125 I having a specific activity of about 2×10^6 cpm/microgram was diluted in PBS containing 1% BSA. The buffer also contained varying amounts of the synthetic peptide. The mixture was added to microtiter wells coated with P. vivax sporozoite extract. After one hour incubation in room temperature, the wells were washed three times with PBS containing 1% BSA and counted in the gamma counter."}, "monoclonal antibody 2F2": {"test_system": "monoclonal antibody 2F2", "assay": "Inhibition of 2F2 binding to immobilized (DRADGQPAG)2 by synthetic peptides", "conditions": "competing peptide 25 micrograms/ml", "excerpt": "(§1) Monoclonal-antibody 2F2 from Example 5 was serially diluted in PBS-BSA (indicated in FIG. 5 by black triangles); or in PBS-BSA containing 25 micrograins/ml of synthetic peptide (NANP)3 (indicated by open triangles); or in PBS-BSA containing 25 micrograms/ml of the synthetic peptide of Example 4, i.e. (DRADGQPAG)2 (indicated by black circles).\n(§2) An unrelated monoclonal-antibody 2AlO (anti-falciparum CS protein) was serially diluted in PBS-BSA (indicated by open squares). […] of each dilution were delivered to the bottom of microtiter plates which had previously been coated with a synthetic peptide (DRADGQPAG)2 saturated with 1% BSA. After 1 hour of incubation, the wells were washed with PBS-BSA in 50 microliters of ^125 I-labelled affinity-purified goat anti-mouse IgG (10^5 cpm; specific activity about 2×10^6 cpm/microgram). After an additional hour of incubation, the wells were washed with PBS-BSA and counted."}, "[3]": {"test_system": "anti-P. falciparum antibody 2AlO", "assay": "Inhibition of binding of anti-P. falciparum antibody 2A10 to (NANP)3", "excerpt": "as §1, §2\nIn other similar experiments, the binding of the anti-P. falciparum antibody 2AlO to the corresponding epitope (NANP)3 was not inhibited by the synthetic peptide (DRADGQPAG)2.^1"}, "monoclonal antibody 2G3": {"test_system": "monoclonal antibody 2G3", "assay": "Two-site immunoradiometric assay performed with monoclonal antibody 2G3 and synthetic peptides", "format": "binding", "protocol": "The two synthetic peptides described in Example 7 were used in these studies. One of them was composed of the 12 amino acid sequence. H2 N-GlnAIaGlnGlyAspGlyAlaAsnAlaGlyGlnPro-COOH (12-MER) and the other was a dimer of the same sequence (24-MER). […] The assay was performed as follows:\nWells of microtiter plates (Falcon 3911) were incubated overnight at 4° C. with 50 μl of a 10 μg/ml solution in PBS of the monoclonal 2G3 anti-CS protein of P. knowlesi. The wells were washed with PBS and then incubated for 2 hours at room temperature, with PBS-Tween 20 (0.05% (w/v), and then for 3 additional hours with PBS-BSA (1% (w/v)). The synthetic peptides were diluted serially in PBS-BSA-Tween 20, and 30 μl aliquots of the dilutions were delivered to the bottom of individual wells. The plates were incubated overnight in the refrigerator, washed with PBS-BSA-Tween 20, and incubated with […] (10 ng) of ^125 I-labeled monoclonal antibody 2G3 diluted in PBS-BSA-Tween 20 (about 100,000 cpm). Controls consisted of plates coated with a non-relevant monoclonal antibody of the same isotype as 2G3."}, "[4]": {"test_system": "binding of monoclonal antibody (2G3) to the CS protein of P. knowlesi", "assay": "12-MER inhibition of binding of monoclonal antibody 2G3 to the CS protein of P. knowlesi", "excerpt": "Wells of microtiter plates were coated with the monoclonal antibody 2G3 washed with Tween-20, saturated with BSA as described supra. In one series of tubes, the 12-MER was serially diluted in PBS-BSA-Tween 20. In a second series of tubes, an extract of P. knowlesi sporozoites (prepared as described by Cochrane et al., supra) was serially diluted in PBS-BSA-Tween20. Aliquots of each dilution of sporozoites were mixed with equal volumes of all dilutions of 12-MER. 30 μI of these mixtures were then added to the bottom of the 2G3-coated wells. As positive and negative controls, 30 μl aliquots of sporozoite dilutions mixed with PBS-BSA-Tween 20 were added to other wells which had been precoated with 2G3 or with a non-relevant monoclonal antibody. After overnight incubation in the refrigerator, the wells were washed and 50 μl ([…]) of ^125 I-labeled 2G3 diluted in PBS-BSA-Tween 20 were added. Following an additional incubation at room temperature for 1 hour, the wells were washed and counted in a gamma counter."}, "porcine elastase": {"test_system": "porcine elastase", "assay": "Elastase treatment of CS protein, reactivity with monoclonal antibodies", "format": "biochemical", "excerpt": "(c) One possible reading frame coded for an alanine-rich peptide."}}, "note": "Read-outs that look alike come from different tables or passages of the source. Where no end group is shown, it is not given here."}
{"substance": "H-(Asp-Gly-Gln-Pro-Ala-Gly-Asp-Arg-Ala)2 [(DRADGQPAG)2]", "values": [{"measurement": "competition with binding of monoclonal antibody to sporozoite extracts", "setting": "[1]", "result": "can compete"}, {"measurement": "Bound 125I-labeled 2F2", "setting": "[2]; synthetic peptide 0.2 micrograms/ml", "result": "3,146 cpm"}, {"measurement": "Bound 125I-labeled 2F2", "setting": "[2]; synthetic peptide 2 micrograms/ml", "result": "2,130 cpm"}, {"measurement": "Bound 125I-labeled 2F2", "setting": "[2]; synthetic peptide 20 micrograms/ml", "result": "1,091 cpm"}, {"measurement": "Bound 125I-labeled 2F2", "setting": "[2]; synthetic peptide 200 micrograms/ml, mean of counts in four wells", "result": 842, "unit": "cpm"}, {"measurement": "inhibition of binding of 2F2 to immobilized (DRADGQPAG)2", "setting": "monoclonal antibody 2F2", "result": "totally inhibited"}, {"measurement": "inhibition of binding of 2AlO to (NANP)3", "setting": "[3]", "result": "not inhibited"}]}
{"substance": "QAQGDGANAGQP [12-MER, H2 N-GlnAIaGlnGlyAspGlyAlaAsnAlaGlyGlnPro-COOH]", "values": [{"measurement": "two-site radioimmunoassay reactivity", "setting": "monoclonal antibody 2G3; monoclonal antibody to P. knowlesi CS protein", "result": "did not bind"}, {"measurement": "Amount of radiolabeled 2G3 bound", "setting": "monoclonal antibody 2G3; peptide 5 ug/ml", "result": 40, "unit": "cpm"}, {"measurement": "Amount of radiolabeled 2G3 bound", "setting": "monoclonal antibody 2G3; peptide 50 ug/ml", "result": 103, "unit": "cpm"}, {"measurement": "Amount of radiolabeled 2G3 bound", "setting": "monoclonal antibody 2G3; peptide 500 ug/ml", "result": 157, "unit": "cpm"}, {"measurement": "Amount of radiolabeled 2G3 bound", "setting": "monoclonal antibody 2G3; peptide .5 ug/ml", "result": 0, "unit": "cpm"}, {"measurement": "inhibition of interaction of P. knowlesi CS protein with monoclonal antibody", "setting": "[4]", "result": "inhibited, in a dose-dependent fashion"}, {"measurement": "Amount of 2G3 bound in the presence of 12-MER inhibitor", "setting": "[4]; 10^3 sporozoites/ml, 12-MER 0.08 mg/ml, 156 cpm at 0", "result": 72, "unit": "cpm"}, {"measurement": "Amount of 2G3 bound in the presence of 12-MER inhibitor", "setting": "[4]; 10^3 sporozoites/ml, 12-MER 0.6 mg/ml, 156 cpm at 0", "result": 0, "unit": "cpm"}, {"measurement": "Amount of 2G3 bound in the presence of 12-MER inhibitor", "setting": "[4]; 10^3 sporozoites/ml, 12-MER 5.0 mg/ml, 156 cpm at 0", "result": 37, "unit": "cpm"}, {"measurement": "Amount of 2G3 bound in the presence of 12-MER inhibitor", "setting": "[4]; 10^4 sporozoites/ml, 12-MER 0.08 mg/ml, 1353 cpm at 0", "result": 102, "unit": "cpm"}, {"measurement": "Amount of 2G3 bound in the presence of 12-MER inhibitor", "setting": "[4]; 10^4 sporozoites/ml, 12-MER 0.6 mg/ml, 1353 cpm at 0", "result": 70, "unit": "cpm"}, {"measurement": "Amount of 2G3 bound in the presence of 12-MER inhibitor", "setting": "[4]; 10^4 sporozoites/ml, 12-MER 5.0 mg/ml, 1353 cpm at 0", "result": 3, "unit": "cpm"}, {"measurement": "Amount of 2G3 bound in the presence of 12-MER inhibitor", "setting": "[4]; 10^5 sporozoites/ml, 12-MER 0.08 mg/ml, 4390 cpm at 0", "result": 1221, "unit": "cpm"}, {"measurement": "Amount of 2G3 bound in the presence of 12-MER inhibitor", "setting": "[4]; 10^5 sporozoites/ml, 12-MER 0.6 mg/ml, 4390 cpm at 0", "result": 781, "unit": "cpm"}, {"measurement": "Amount of 2G3 bound in the presence of 12-MER inhibitor", "setting": "[4]; 10^5 sporozoites/ml, 12-MER 5.0 mg/ml, 4390 cpm at 0", "result": 361, "unit": "cpm"}, {"measurement": "Amount of 2G3 bound in the presence of 12-MER inhibitor", "setting": "[4]; 10^6 sporozoites/ml, 12-MER 0.08 mg/ml, 5582 cpm at 0", "result": 3893, "unit": "cpm"}, {"measurement": "Amount of 2G3 bound in the presence of 12-MER inhibitor", "setting": "[4]; 10^6 sporozoites/ml, 12-MER 0.6 mg/ml, 5582 cpm at 0", "result": 3018, "unit": "cpm"}, {"measurement": "Amount of 2G3 bound in the presence of 12-MER inhibitor", "setting": "[4]; 10^6 sporozoites/ml, 12-MER 5.0 mg/ml, 5582 cpm at 0", "result": 1099, "unit": "cpm"}, {"measurement": "inhibition of interaction of P. knowlesi CS protein with monoclonal antibody", "setting": "[4]; listed as monomer", "result": "compete with and specifically inhibit"}]}
{"substance": "OOC-Ala Ala Pro Ala", "values": [{"measurement": "inactivation of CS protein by elastase in presence of inhibitor", "setting": "porcine elastase", "result": "reversed"}]}
